The results in this text go back to patent US20140187594A1, “DIPHENYL ETHER COMPOUNDS FOR THE TREATMENT OF LIVER, LUNG DISORDERS, DIABETIC COMPLICATIONS AND CARDIOVASCULAR DISEASES” (ORCHID CHEMICALS AND PHARMACEUTICALS LTD, priority 2010, published 2014).

Entries after “also recorded” stand apart in the source; their conditions may differ.

Assay [1] has as its system acute alcohol induced hypertriglyceridemic mice. As to the kind of experiment: Acute alcohol induced hypertriglyceridemia. The format is in vivo, C57BL/6 mice. The settings on record: (A) 100 mg/kg, disodium salt of (C) 30 mg/kg p.o., seven days, 40% alcohol challenge; FIG. 33. On the procedure:
Male C57BL/6 mice aged 6-8 weeks, and body weight ranges between 22-28 g were used for this study. Animals were divided into four groups (n=8) and fed normal chow feed (Nutri Lab® Rodent, Tetragon Chemie Pvt. Ltd., Bangalore) and drinking water. The Group I and Group II animals were served as a normal and disease control treated with vehicle. Group III (n=8) and Group IV (n=8) animals were treated with compound of formula (A) and disodium salts of compound of formula (C) at 100 and 30 mg/kg p.o respectively for seven days. On 7th day one hour post administration of compounds Group II, Group III and Group IV animals were challenged with 40% alcohol (10 ml/kg b.w) p.o. Eighteen hours post challenge animals were bled, plasma separated and used for biochemical parameter analysis.
The parameters like Glucose, ALT, AST, TC, TG (Clinical chemistry analyzer Erba XL 300), insulin (Linco®-CA, Product code: EZRMI-13K) and TNFα (GE Healthcare, Amersham, UK. Product code: RPN2718) were measured using commercially available kits. NEFA was measured in serum using commercially available NEFA C kit (Product code No: 279-75401, Wako pure chemical industries ltd., Japan).

The next assay has as its system NAFLD/NASH mice. The experiment in a line: Supranutritional diet induced NAFLD/NASH (and DIO/NAFLD) models. It is filed as in vivo, C57BL/6 mice. Here is the method: A rodent obese and NAFLD model was developed by feeding supranutritional diet, which simulates several features of human obesity and NAFLD. These features were treated as mentioned below. […] C57BL/6 male mice aged at 6-8 weeks, body weight ranges between 16-22 g were used for this study. Animals were divided into two groups. First group (n=8, where n refers to number of animals) was treated as a normal control fed with chow feed (Nutri Lab® Rodent, Tetragon Chemie Pvt. Ltd., Bangalore) and the second group (n=20) was treated with 60 Kcal % high fat diet (HFD) (Research Diets, New Brunswick, N.J., Cat# D12492 with blue dye) for 90 days. Animals were selected based on their body weight. The Animals fed with normal chow diet (n=8) served as normal control (Group I) and animals fed with HFD were divided into two groups as DIO/NAFLD control (Group II) (n=10), and Group III (n=9) treated with compound formula (A) at 100 mg/kg for 28 days. During this period, animal body weight and feed intake was recorded daily.
A rodent NAFLD/NASH model was developed by feeding supranutritional diet which simulates several features of human NAFLD/NASH. These features were treated as mentioned below. Fifty C57BL/6 male mice aged 6-8 weeks, and body weight ranges between 16-36 g were used for this study. Animals were divided into two groups, first group (n=10) treated as a normal control, was fed with chow feed (Nutri Lab® Rodent, Tetragon Chemie Pvt. Ltd., Bangalore) and the second group (n=40) fed with 60 Kcal % HFD (Research Diets, New Brunswick, N.J., Cat# D12492 with blue dye) and 40% high fructose liquid (HFL) for 60 days. After 45 days, two animals from disease induction and normal control groups were sacrificed; liver histopathology examination was carried out to confirm the induction of NAFLD/NASH. Animals fed with normal chow diet served as a normal control (Group I) and animals fed HFD and HFL were divided into three groups (n=6-8) as NAFLD/NASH control (Group II), Group III and Group IV were dosed with compound of formula (A) and Metformin at 100 and 350 mg/kg p.o respectively for 28 days. On 28th day, animals were kept 12 hours fasting and 29th day blood was collected, plasma separated and used for biochemical and compound concentration analysis. The animals were then sacrificed. Liver was collected and weighed. Liver tissues were used for compound concentration analysis, triglycerides estimation and histopathology examination. Gross pathology of liver was also observed. Experiment-3: Effect of Compound of formula (A) in NAFLD/NASH mice
The experiment-2 protocol was followed. There compound of formula (A) was compared with other antidiabetic compounds (Figures-8-13).
To develop NAFLD/NASH model, the same protocol was followed as mentioned in Experiment-2. At the end of induction period the animals were grouped as follows. Animals fed with normal chow diet (n=9) served as Normal control (Group 1) and animals fed HFD and HFL were divided into four groups (n=9-12) as NAFLD/NASH control (Group II), Groups III, IV, and V were treated with compound of formula (A) at 10, 30 and 100 mg/kg p.o. respectively for 28 days. After 28 days of treatment animals were kept for 12 hours fasting and blood was collected for biochemical estimations. Following blood collection, animals were sacrificed, liver was collected and weighed. Liver tissues were used for compound concentration analysis, TG estimation and histopathological examination. Gross pathology of liver was also observed. […]

Turning to `COC(=O)[C@@H](N)Cc1ccc(Oc2ccc(CC3SC(=O)NC3=O)cc2)cc1` (stereo partly drawn) [Compound of formula (A), Methyl(2S)-2-amino-3-(4-{4-[(2,4-dioxo-1,3-thiazolidin-5-yl)methyl]phenoxy}phenyl)propanoate], in assay [1], the “plasma TG” value is “significant reduction in TG”. Moreover, in the assay on NAFLD/NASH mice ((A) up to 100 mg/kg, disodium salt of (C) 30 mg/kg p.o., 28 days, FIGS. 6, 7, 12, 13, 19, 20, 21, 24, 25, 30, 31 & 32), the “liver histopathology (Hepatic steatosis)” value is recorded as “reduction; also recorded: improvement in liver histopathology”. Further, in the assay on NAFLD/NASH mice (vs untreated disease control, FIG. 17), the “plasma AST” value is “reduction”. Moreover, the body weight entry with NAFLD/NASH mice (vs untreated disease control, FIGS. 1, 2, 8, 16 & 23) was “reduction in body weight”. Also, the “glucose (fasted)” value with NAFLD/NASH mice (vs untreated disease control, FIGS. 5 & 9) was “reduction”. Besides, in the assay with NAFLD/NASH mice (vs untreated disease control, FIGS. 10 & 18), the “plasma ALT” value is “reduction”.
